Laboratory results reported in ChEMBL document CHEMBL4715760, “Balancing potency, metabolic stability and permeability in pyrrolopyrimidine-based EGFR inhibitors” (Eur J Med Chem, 2016).
≈ marks a conversion by molar mass, not a printed value.

What was measured:
[1] = biological target: T1, Epidermal growth factor receptor (Homo sapiens, UniProt P00533); test: Inhibition of human EGFR using poly[Glu:Tyr] (4:1) as substrate in presence of [gamma33P]ATP by radiometric HotSpot assay
[2] = biological target: T1, Epidermal growth factor receptor; details: dose 100.0 nM
Description: Inhibition of human EGFR at 100 nM using poly[Glu:Tyr] (4:1) as substrate in presence of [gamma33P]ATP by radiometric HotSpot assay relative to control

A-431 = test: Antiproliferative activity against human A431 cells; assay type: functional, cell-based
BaF3 = test: Antiproliferative activity against mouse Ba/F3 cells expressing EGFR-L858R mutant assessed as inhibition of cell growth incubated for 48 hrs by XTT assay; assay type: functional, cell-based; details: BaF3, 48 h
[3] = biological target: Voltage-gated inwardly rectifying potassium channel KCNH2 (Homo sapiens, UniProt Q12809); test: Inhibition of human ERG expressed in CHO cells at -80 mV holding potential by IonWorks patch-clamp electrophysiology assay
[4] = Apparent permeability from apical to basolateral side in human Caco2 cells at 10 uM measured for 120 mins by LC-MS/MS analysis; details: for Papp: caco-2, 2 h, 10 µM; for Papp A→B at 2 h, 10 µM: Caco-2
[5] = Metabolic stability in pooled human liver microsomes assessed as Clearance at 3 uM measured up to 45 mins in presence of NADPH by LC-MS/MS analysis; assay type: ADME, Microsome; details: for microsomal CLint at 3 µM: pooled liver microsomes, read-out: CLH
[6] = Protein binding in plasma (unknown origin) assessed as unbound fraction at 5 uM by LC-MS/MS based equilibrium dialysis analysis
[7] = Apparent permeability from basolateral to apical side in human Caco2 cells at 10 uM measured for 120 mins by LC-MS/MS analysis; details: for Papp: caco-2, 2 h, 10 µM; for Papp B→A at 2 h, 10 µM: Caco-2
[8] = Metabolic stability in pooled human liver microsomes assessed as half life at 3 uM measured up to 45 mins in presence of NADPH by LC-MS/MS analysis; assay type: ADME, Microsome; details: for half-life at 3 µM: pooled liver microsomes
physchem = details: phosphate buffered saline, pH 7.4
[9] = biological target: T1, Epidermal growth factor receptor; details: dose 100.0 nM, time 1.0 hrs
[10] = biological target: T1, Epidermal growth factor receptor; test: Inhibition of EGFR (unknown origin) using Tyr 04 peptide as substrate incubated for 1 hr by Z'-LYTE assay
[11] = Efflux ratio of apparent permeability across basolateral to apical side over apical to basolateral side in human Caco2 cells at 10 uM measured for 120 mins by LC-MS/MS analysis

T1 sequence (P00533 whole entry): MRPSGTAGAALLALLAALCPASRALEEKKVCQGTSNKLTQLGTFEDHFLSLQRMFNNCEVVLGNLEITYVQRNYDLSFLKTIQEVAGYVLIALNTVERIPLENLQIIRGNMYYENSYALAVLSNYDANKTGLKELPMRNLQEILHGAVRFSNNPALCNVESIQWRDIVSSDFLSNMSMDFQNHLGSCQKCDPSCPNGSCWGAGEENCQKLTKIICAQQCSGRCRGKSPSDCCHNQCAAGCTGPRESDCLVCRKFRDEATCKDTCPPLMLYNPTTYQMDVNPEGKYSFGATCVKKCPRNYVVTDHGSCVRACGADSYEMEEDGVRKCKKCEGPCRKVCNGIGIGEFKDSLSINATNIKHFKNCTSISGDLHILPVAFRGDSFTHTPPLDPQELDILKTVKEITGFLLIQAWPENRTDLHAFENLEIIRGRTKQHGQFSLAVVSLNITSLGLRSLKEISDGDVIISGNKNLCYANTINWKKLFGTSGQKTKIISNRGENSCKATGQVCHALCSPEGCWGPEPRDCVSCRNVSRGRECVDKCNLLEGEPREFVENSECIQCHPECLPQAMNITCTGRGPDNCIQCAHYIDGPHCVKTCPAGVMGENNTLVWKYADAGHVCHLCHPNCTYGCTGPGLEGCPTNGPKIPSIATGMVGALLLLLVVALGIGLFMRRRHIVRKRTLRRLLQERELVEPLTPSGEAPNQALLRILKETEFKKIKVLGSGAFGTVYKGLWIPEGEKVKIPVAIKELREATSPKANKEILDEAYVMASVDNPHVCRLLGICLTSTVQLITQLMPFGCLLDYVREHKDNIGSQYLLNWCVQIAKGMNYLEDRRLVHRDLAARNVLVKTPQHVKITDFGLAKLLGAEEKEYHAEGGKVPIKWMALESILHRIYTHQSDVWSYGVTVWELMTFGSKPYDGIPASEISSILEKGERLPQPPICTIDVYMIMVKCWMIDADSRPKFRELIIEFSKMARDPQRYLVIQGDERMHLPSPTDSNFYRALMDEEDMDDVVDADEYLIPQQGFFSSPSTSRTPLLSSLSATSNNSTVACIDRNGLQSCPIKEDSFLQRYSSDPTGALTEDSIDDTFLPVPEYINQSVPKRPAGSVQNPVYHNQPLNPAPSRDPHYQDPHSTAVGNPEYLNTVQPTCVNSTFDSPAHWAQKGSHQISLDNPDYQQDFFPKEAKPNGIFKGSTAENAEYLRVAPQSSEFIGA
Voltage-gated inwardly rectifying potassium channel KCNH2, sequence (Q12809 whole entry): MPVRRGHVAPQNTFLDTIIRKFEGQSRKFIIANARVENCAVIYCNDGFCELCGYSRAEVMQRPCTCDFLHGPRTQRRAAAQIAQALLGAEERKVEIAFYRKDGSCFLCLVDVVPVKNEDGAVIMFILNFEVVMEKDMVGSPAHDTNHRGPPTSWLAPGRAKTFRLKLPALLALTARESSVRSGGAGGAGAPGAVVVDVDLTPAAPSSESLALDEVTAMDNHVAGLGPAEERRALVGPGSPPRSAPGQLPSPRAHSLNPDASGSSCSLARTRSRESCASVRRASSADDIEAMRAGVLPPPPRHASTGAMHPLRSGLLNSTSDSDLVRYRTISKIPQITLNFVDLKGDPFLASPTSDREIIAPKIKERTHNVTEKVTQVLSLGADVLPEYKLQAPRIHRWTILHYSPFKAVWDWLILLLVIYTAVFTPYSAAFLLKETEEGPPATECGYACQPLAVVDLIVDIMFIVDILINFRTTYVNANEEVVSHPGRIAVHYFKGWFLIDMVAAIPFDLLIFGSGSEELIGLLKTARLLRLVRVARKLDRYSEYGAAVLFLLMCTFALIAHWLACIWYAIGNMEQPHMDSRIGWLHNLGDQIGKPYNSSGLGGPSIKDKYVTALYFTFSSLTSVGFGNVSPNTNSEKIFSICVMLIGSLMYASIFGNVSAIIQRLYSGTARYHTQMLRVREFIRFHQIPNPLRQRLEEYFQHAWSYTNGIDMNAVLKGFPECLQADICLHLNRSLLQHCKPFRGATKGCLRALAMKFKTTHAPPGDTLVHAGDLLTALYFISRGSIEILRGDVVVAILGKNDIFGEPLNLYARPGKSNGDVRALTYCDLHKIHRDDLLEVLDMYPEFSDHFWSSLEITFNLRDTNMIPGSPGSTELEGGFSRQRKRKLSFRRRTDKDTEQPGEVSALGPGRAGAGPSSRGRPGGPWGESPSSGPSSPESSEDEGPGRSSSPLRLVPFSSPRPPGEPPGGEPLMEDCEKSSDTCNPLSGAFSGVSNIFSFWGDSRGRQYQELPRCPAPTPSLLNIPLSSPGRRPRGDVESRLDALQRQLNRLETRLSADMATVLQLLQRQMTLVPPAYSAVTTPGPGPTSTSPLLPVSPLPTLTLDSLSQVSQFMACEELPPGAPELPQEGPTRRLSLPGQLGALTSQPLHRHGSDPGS

SMILES	IC50 [1] [nM]	inhibition [2] [%]	also measured
C[C@@H](Nc1ncnc2[nH]c(-c3ccc(S(N)(=O)=O)cc3)cc12)c1ccccc1	0.7	96	–
COc1cc(CN(C)CCN(C)C)ccc1-c1cc2c(N[C@H](CO)c3ccccc3)ncnc2[nH]1	0.1	99	IC50 (A-431): > 10000 nM; IC50 (BaF3): 77 nM
COc1cc(CNCCN2CCCCC2)ccc1-c1cc2c(N[C@H](CO)c3ccccc3)ncnc2[nH]1	0.1	99	–
COc1cnccc1-c1cc2c(N[C@H](CO)c3ccccc3)ncnc2[nH]1	0.6	97	–
CCOc1ccccc1-c1cc2c(N[C@H](CCO)c3ccccc3)ncnc2[nH]1	0.1	100	IC50 (A-431): 4900 nM; IC50 (BaF3): 99 nM
COc1cc(CNCCS(C)(=O)=O)ccc1-c1cc2c(N[C@H](CO)c3ccccc3)ncnc2[nH]1	0.4	100	–
CC(C)Oc1ccccc1-c1cc2c(N[C@H](C)c3ccccc3)ncnc2[nH]1	0.6	98	–
CCOc1ccccc1-c1cc2c(N[C@H](C)c3ccccc3)ncnc2[nH]1	0.3	99	–
COc1cc(CO)ccc1-c1cc2c(N[C@H](CO)c3ccccc3)ncnc2[nH]1	–	–	IC50 [3]: > 25000 nM; Papp [4]: 2.98 10^-6 cm/s; microsomal CLint at 3 µM [5]: 12.6 µL/min/mg; fraction unbound at 5 µM [6]: 0.08; Papp [7]: 50.84 10^-6 cm/s; half-life at 3 µM [8]: 1.83 h; solubility kinetic at 2 h (physchem): > 100 µM
C[C@@H](Nc1ncnc2[nH]c(-c3ccc(S(C)(=O)=O)cc3)cc12)c1ccccc1	0.4	97	–
CS(=O)(=O)c1ccc(-c2cc3c(N[C@H](CO)c4ccccc4)ncnc3[nH]2)cc1	0.8	96	–
COc1cc(NS(C)(=O)=O)ccc1-c1cc2c(N[C@H](CO)c3ccccc3)ncnc2[nH]1	0.3	100	–
COc1cc(NC(C)=O)ccc1-c1cc2c(N[C@H](CO)c3ccccc3)ncnc2[nH]1	0.8	98	–
OCc1ccc(-c2cc3c(N[C@H](CO)c4ccccc4)ncnc3[nH]2)cc1	–	–	inhibition [9]: 98%; microsomal CLint at 3 µM [5]: 5.21 µL/min/mg; fraction unbound at 5 µM [6]: 0.11; half-life at 3 µM [8]: 4.43 h; IC50 [10]: 0.2 nM
COC[C@@H](Nc1ncnc2[nH]c(-c3ccc(CO)cc3OC)cc12)c1ccccc1	0.5	98	–
OCc1ccc(-c2cc3c(N[C@H](CO)c4ccccc4)ncnc3[nH]2)cc1F	0.6	97	IC50 (A-431): 5800 nM; IC50 (BaF3): 158 nM
CN(C)CCNCc1cc(-c2cc3c(N[C@H](CO)c4ccccc4)ncnc3[nH]2)ccc1F	1.2	96	Papp A→B at 2 h, 10 µM [4]: 1.6 ×10⁻⁶ cm/s; CLH ([5]; microsomes, 0.75 h, 3 µM): 2.79 µL/min/mg; Papp B→A at 2 h, 10 µM [7]: 9.6 ×10⁻⁶ cm/s; t1/2 ([8]; microsomes, 0.75 h, 3 µM): 1.72 h; solubility kinetic at 2 h (physchem): > 100 µM; efflux ratio at 2 h, 10 µM ([11]; Caco-2): 5.9
COc1cc(CNCCN(C)C)ccc1-c1cc2c(N[C@H](CO)c3ccccc3)ncnc2[nH]1	0.3	100	–
OCc1cc(-c2cc3c(N[C@H](CO)c4ccccc4)ncnc3[nH]2)ccc1F	1.6	96	–
CC(=O)Nc1ccc(-c2cc3c(N[C@H](C)c4ccccc4)ncnc3[nH]2)cc1	0.7	97	–
C[C@@H](Nc1ncnc2[nH]c(-c3ccccc3OC(F)F)cc12)c1ccccc1	0.8	98	microsomal CLint at 3 µM [5]: 56.2 µL/min/mg; half-life at 3 µM [8]: 0.412 h

SMILES	IC50 [1] [nM]	inhibition [2] [%]	also measured
COC[C@@H](Nc1ncnc2[nH]c(-c3ccccc3OC(F)F)cc12)c1ccccc1	1.3	96	–
COc1cc(C(N)=O)ccc1-c1cc2c(N[C@H](C)c3ccccc3)ncnc2[nH]1	0.4	98	–
C[C@@H](Nc1ncnc2[nH]c(-c3ccc(NS(C)(=O)=O)cc3)cc12)c1ccccc1	0.3	98	Papp [4]: 0.03 10^-6 cm/s; microsomal CLint at 3 µM [5]: 21.2 µL/min/mg; Papp [7]: 26.9 10^-6 cm/s; half-life at 3 µM [8]: 1.09 h; solubility kinetic at 2 h (physchem): 37.5 µM (≈ 15.3 µg/mL); Ratio ([11]; caco-2, 2 h, 10 µM): 23.7
C[C@@H](Nc1ncnc2[nH]c(-c3ccccc3OC(F)(F)F)cc12)c1ccccc1	4.3	92	–
C[C@@H](Nc1ncnc2[nH]c(-c3ccncc3)cc12)c1ccccc1	0.6	97	–
C[C@@H](Nc1ncnc2[nH]c(-c3ccc(C(N)=O)cc3)cc12)c1ccccc1	0.8	97	–
OC[C@@H](Nc1ncnc2[nH]c(-c3ccncc3)cc12)c1ccccc1	2	94	–
COc1cc(C(N)=O)ccc1-c1cc2c(N[C@H](CO)c3ccccc3)ncnc2[nH]1	0.5	99	–
CS(=O)(=O)Nc1ccc(-c2cc3c(N[C@H](CO)c4ccccc4)ncnc3[nH]2)cc1	–	–	Papp A→B at 2 h, 10 µM [4]: 0.02 ×10⁻⁶ cm/s; microsomal CLint at 3 µM [5]: 10.2 µL/min/mg; Papp B→A at 2 h, 10 µM [7]: 29.2 ×10⁻⁶ cm/s; half-life at 3 µM [8]: 2.27 h; solubility kinetic at 2 h (physchem): > 100 µM
COc1cc(CNCCN2CCOCC2)ccc1-c1cc2c(N[C@H](CO)c3ccccc3)ncnc2[nH]1	0.1	97	–
COc1cccc(OC)c1-c1cc2c(N[C@H](C)c3ccccc3)ncnc2[nH]1	0.6	97	–
COc1cc(CNCCN2CCNCC2)ccc1-c1cc2c(N[C@H](CO)c3ccccc3)ncnc2[nH]1	0.1	98	IC50 (A-431): 6200 nM; IC50 (BaF3): 396 nM
[2H]C([2H])([2H])Oc1ccccc1-c1cc2c(N[C@H](CO)c3ccccc3)ncnc2[nH]1	0.4	–	–
C[C@@H](Nc1ncnc2[nH]c(-c3cccc(C(N)=O)c3)cc12)c1ccccc1	1.4	95	–
NC(=O)Cc1cccc(-c2cc3c(N[C@H](CO)c4ccccc4)ncnc3[nH]2)c1	0.7	100	–
CN(C)CCNCc1ccc(-c2cc3c(N[C@H](CO)c4ccccc4)ncnc3[nH]2)cc1	0.3	97	–
OC[C@@H](Nc1ncnc2[nH]c(-c3cccnc3)cc12)c1ccccc1	2.2	92	–
COc1cc(CNCCN(C)C)ccc1-c1cc2c(N[C@H](C)c3ccccc3)ncnc2[nH]1	0.1	99	IC50 (A-431): 5000 nM; IC50 (BaF3): 90 nM
Cn1c(-c2ccccc2)cc2c(N[C@H](CO)c3ccccc3)ncnc21	900	20	–
COc1cc(NS(C)(=O)=O)ccc1-c1cc2c(N[C@H](C)c3ccccc3)ncnc2[nH]1	0.7	100	–
